Test results reported in the NIST ThermoML archive (doi:10.1007/s10765-019-2573-6).

Conditions: Liquid, Vibrating wire viscometry

COC(=O)CCCCC(=O)OC [dimethyl 1,6-hexanedioate]
viscosity [mPa·s]
Conditions | 100 kPa | 1000 kPa | 5000 kPa | 10000 kPa | 15000 kPa | 20000 kPa | 30000 kPa | 40000 kPa
293.15 K | – | – | 3.46 | 3.623 | 3.787 | 3.958 | 4.333 | 4.722
293.17 K | 3.302 | 3.331 | – | – | – | – | – | –
303.15 K | – | – | 2.735 | 2.854 | – | – | – | –
303.16 K | – | – | – | – | 2.985 | 3.115 | 3.384 | 3.672
303.17 K | 2.617 | 2.637 | – | – | – | – | – | –
313.14 K | – | 2.151 | – | – | 2.422 | 2.522 | 2.727 | –
313.15 K | 2.129 | – | 2.227 | 2.326 | – | – | – | 2.955
323.14 K | – | – | – | – | – | – | – | 2.432
323.15 K | 1.774 | 1.789 | 1.85 | 1.928 | 2.008 | 2.089 | 2.254 | –
333.14 K | – | – | – | – | – | – | – | 2.046
333.15 K | 1.503 | 1.514 | 1.565 | 1.629 | 1.696 | 1.764 | 1.903 | –
343.15 K | 1.293 | 1.303 | 1.346 | 1.401 | 1.457 | 1.514 | 1.63 | 1.752
353.15 K | 1.128 | – | 1.174 | 1.221 | 1.269 | 1.317 | 1.417 | 1.52
353.16 K | – | 1.136 | – | – | – | – | – | –
363.13 K | – | – | – | – | 1.115 | 1.157 | – | –
363.15 K | 0.9897 | 0.9971 | 1.03 | 1.072 | – | – | 1.244 | 1.332

CCOC(=O)CCCCC(=O)OCC [diethyl hexanedioate]
viscosity [mPa·s]
Conditions | 100 kPa | 1000 kPa | 5000 kPa | 10000 kPa | 15000 kPa | 20000 kPa | 30000 kPa | 40000 kPa
283.15 K | 4.541 | 4.59 | 4.792 | 5.062 | 5.332 | 5.622 | – | 6.887
283.16 K | – | – | – | – | – | – | 6.223 | –
293.15 K | 3.486 | 3.521 | 3.672 | 3.868 | 4.075 | 4.278 | 4.722 | 5.195
303.15 K | 2.766 | 2.792 | 2.912 | 3.063 | 3.207 | 3.361 | 3.696 | 4.042
313.15 K | 2.252 | – | 2.362 | 2.478 | 2.597 | 2.721 | 2.978 | 3.251
313.16 K | – | 2.272 | – | – | – | – | – | –
323.15 K | 1.87 | 1.886 | 1.961 | 2.054 | 2.151 | 2.248 | 2.461 | 2.68
333.15 K | 1.579 | 1.592 | 1.653 | 1.734 | 1.814 | 1.896 | 2.066 | 2.249
343.15 K | 1.354 | 1.367 | 1.419 | 1.487 | 1.555 | 1.624 | 1.765 | 1.917
353.14 K | – | 1.187 | – | – | – | – | – | –
353.15 K | 1.177 | – | 1.233 | 1.292 | 1.351 | 1.411 | 1.534 | 1.662
363.15 K | 1.032 | 1.041 | 1.081 | 1.133 | 1.183 | 1.236 | 1.343 | 1.453

CCCOC(=O)CCCCC(=O)OCCC [dipropyl hexanedioate]
viscosity [mPa·s]
Conditions | 100 kPa | 1000 kPa | 5000 kPa | 10000 kPa | 15000 kPa | 20000 kPa | 30000 kPa | 40000 kPa
283.15 K | 6.153 | 6.217 | 6.536 | 6.943 | 7.36 | 7.811 | 8.759 | 9.76
293.14 K | – | 4.65 | – | – | – | – | – | –
293.15 K | 4.599 | – | 4.87 | 5.155 | 5.456 | 5.773 | 6.429 | 7.169
303.15 K | 3.567 | 3.604 | 3.766 | 3.983 | 4.205 | 4.434 | 4.938 | 5.457
313.15 K | 2.854 | 2.889 | 3.014 | 3.178 | 3.347 | 3.519 | 3.899 | 4.293
323.14 K | – | – | – | 2.592 | – | – | – | –
323.15 K | 2.34 | 2.364 | 2.464 | – | 2.725 | 2.867 | 3.157 | 3.475
333.15 K | 1.954 | 1.973 | 2.058 | 2.163 | 2.275 | 2.391 | 2.624 | 2.875
343.15 K | 1.658 | 1.673 | 1.744 | 1.835 | 1.928 | 2.019 | 2.216 | 2.42
353.15 K | 1.426 | 1.44 | 1.5 | 1.577 | 1.654 | 1.736 | 1.9 | 2.074
363.15 K | 1.242 | 1.253 | 1.306 | 1.371 | 1.439 | 1.508 | 1.649 | 1.798

CCCCOC(=O)CCCCC(=O)OCCCC [dibutyl hexanedioate]
viscosity [mPa·s]
Conditions | 100 kPa | 1000 kPa | 5000 kPa | 10000 kPa | 15000 kPa | 20000 kPa | 30000 kPa | 40000 kPa
283.15 K | – | – | – | – | 8.961 | – | 10.62 | 11.95
283.16 K | 7.383 | 7.493 | – | – | – | 9.508 | – | –
283.17 K | – | – | 7.896 | 8.407 | – | – | – | –
293.14 K | – | 5.566 | – | – | 6.585 | – | – | 8.724
293.15 K | 5.499 | – | 5.84 | 6.196 | – | 6.982 | 7.808 | –
303.15 K | 4.237 | – | 4.49 | 4.759 | 5.029 | 5.323 | 5.933 | 6.592
303.16 K | – | 4.288 | – | – | – | – | – | –
313.15 K | 3.375 | 3.411 | 3.566 | 3.769 | 3.979 | 4.197 | 4.66 | 5.153
323.15 K | – | 2.774 | 2.9 | 3.061 | 3.224 | 3.393 | 3.754 | 4.146
323.16 K | 2.746 | – | – | – | – | – | – | –
333.14 K | – | – | – | 2.54 | – | – | – | –
333.15 K | 2.282 | 2.304 | 2.407 | – | – | 2.814 | 3.106 | 3.412
333.16 K | – | – | – | – | 2.675 | – | – | –
343.15 K | 1.93 | 1.95 | 2.035 | 2.144 | 2.257 | 2.37 | 2.612 | 2.859
353.15 K | 1.655 | 1.672 | 1.746 | 1.839 | 1.933 | 2.031 | 2.23 | 2.438
363.15 K | 1.437 | 1.452 | – | – | 1.675 | 1.757 | 1.93 | 2.108
363.16 K | – | – | – | 1.594 | – | – | – | –
363.17 K | – | – | 1.513 | – | – | – | – | –
